From publication PMC7613998, “Development of selective inhibitors of phosphatidylinositol 3-kinase C2α” (Nature Chemical Biology, 2022)

Assays:
Assay in all cases: biochemical
Set-up in all cases: SelectScreen Z'-LYTE purified kinase panel, per cent inhibition, mean of two points
Conditions in all cases: (μM)=Km app
[1] = molecular target: JAK2 (Homo sapiens, UniProt O60674)
[2] = molecular target: EPHA2 (Homo sapiens, UniProt P29317)
[3] = molecular target: PIM1 (Homo sapiens, UniProt P11309)
[4] = molecular target: KDR (VEGFR2) (Homo sapiens, UniProt P35968)
[5] = molecular target: INSR (Homo sapiens, UniProt P06213)
[6] = molecular target: CSNK1G2 (CK1 gamma 2) (Homo sapiens, UniProt P78368)
[7] = molecular target: MAPK11 (p38 beta) (Homo sapiens, UniProt Q15759)
[8] = molecular target: PAK1 (Homo sapiens, UniProt Q13153)
[9] = molecular target: FGFR3 (Homo sapiens, UniProt P22607)
[10] = molecular target: PTK2 (FAK) (Homo sapiens, UniProt Q05397)
[11] = molecular target: EGFR (ErbB1) (Homo sapiens, UniProt P00533)
[12] = molecular target: SRC (Homo sapiens, UniProt P12931)
[13] = molecular target: TEK (Tie2) (Homo sapiens, UniProt Q02763)
[14] = molecular target: CSK (Homo sapiens, UniProt P41240)
[15] = molecular target: T1, IRAK4 (Homo sapiens, UniProt Q9NWZ3)
T1 sequence (Q9NWZ3 1-460): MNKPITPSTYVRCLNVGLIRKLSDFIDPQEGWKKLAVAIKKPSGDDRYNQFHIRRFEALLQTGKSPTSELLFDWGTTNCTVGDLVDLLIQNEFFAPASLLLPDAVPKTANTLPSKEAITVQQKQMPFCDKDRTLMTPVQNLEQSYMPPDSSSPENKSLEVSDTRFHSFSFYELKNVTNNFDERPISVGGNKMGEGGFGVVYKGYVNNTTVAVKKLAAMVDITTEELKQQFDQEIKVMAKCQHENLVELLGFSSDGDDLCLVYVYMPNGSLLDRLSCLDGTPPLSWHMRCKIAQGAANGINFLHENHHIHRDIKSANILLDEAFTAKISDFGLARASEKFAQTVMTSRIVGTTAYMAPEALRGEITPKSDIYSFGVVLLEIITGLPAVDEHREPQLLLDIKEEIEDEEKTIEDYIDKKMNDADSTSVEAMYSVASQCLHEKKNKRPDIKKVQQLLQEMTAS

[16] = molecular target: PLK1 (Homo sapiens, UniProt P53350)

EGFR (ErbB1), sequence (P00533 whole entry): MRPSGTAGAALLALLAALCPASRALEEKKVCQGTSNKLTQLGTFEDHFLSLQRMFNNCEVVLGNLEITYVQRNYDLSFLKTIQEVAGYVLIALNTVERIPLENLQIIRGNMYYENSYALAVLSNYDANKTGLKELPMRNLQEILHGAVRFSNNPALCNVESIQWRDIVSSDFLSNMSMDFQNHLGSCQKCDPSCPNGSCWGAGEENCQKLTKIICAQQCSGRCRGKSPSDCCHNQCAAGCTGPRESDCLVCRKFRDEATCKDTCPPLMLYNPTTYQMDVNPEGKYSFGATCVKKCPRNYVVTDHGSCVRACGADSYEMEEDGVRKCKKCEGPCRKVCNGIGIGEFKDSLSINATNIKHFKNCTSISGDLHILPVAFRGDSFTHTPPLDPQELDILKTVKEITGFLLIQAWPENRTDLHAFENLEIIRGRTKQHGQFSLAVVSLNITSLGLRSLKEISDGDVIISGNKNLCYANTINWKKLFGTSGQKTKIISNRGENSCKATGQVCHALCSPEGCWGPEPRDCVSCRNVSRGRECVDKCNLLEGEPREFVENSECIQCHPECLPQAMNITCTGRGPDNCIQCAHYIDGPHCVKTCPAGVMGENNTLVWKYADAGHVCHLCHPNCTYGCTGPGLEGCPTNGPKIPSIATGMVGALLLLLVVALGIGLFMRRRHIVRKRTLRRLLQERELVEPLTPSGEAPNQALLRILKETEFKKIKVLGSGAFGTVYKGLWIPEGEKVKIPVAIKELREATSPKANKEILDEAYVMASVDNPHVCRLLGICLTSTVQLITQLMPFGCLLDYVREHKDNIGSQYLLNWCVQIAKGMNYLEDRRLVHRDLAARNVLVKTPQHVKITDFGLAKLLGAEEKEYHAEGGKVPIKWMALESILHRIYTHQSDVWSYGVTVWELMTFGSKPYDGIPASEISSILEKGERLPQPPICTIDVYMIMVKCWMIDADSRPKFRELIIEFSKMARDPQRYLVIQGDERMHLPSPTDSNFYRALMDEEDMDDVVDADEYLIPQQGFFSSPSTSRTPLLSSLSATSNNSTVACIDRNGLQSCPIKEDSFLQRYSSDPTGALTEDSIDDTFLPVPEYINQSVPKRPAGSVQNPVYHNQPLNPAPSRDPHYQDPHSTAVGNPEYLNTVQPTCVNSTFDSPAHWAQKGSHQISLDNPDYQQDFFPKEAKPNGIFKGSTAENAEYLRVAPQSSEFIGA
EPHA2, sequence (P29317 whole entry): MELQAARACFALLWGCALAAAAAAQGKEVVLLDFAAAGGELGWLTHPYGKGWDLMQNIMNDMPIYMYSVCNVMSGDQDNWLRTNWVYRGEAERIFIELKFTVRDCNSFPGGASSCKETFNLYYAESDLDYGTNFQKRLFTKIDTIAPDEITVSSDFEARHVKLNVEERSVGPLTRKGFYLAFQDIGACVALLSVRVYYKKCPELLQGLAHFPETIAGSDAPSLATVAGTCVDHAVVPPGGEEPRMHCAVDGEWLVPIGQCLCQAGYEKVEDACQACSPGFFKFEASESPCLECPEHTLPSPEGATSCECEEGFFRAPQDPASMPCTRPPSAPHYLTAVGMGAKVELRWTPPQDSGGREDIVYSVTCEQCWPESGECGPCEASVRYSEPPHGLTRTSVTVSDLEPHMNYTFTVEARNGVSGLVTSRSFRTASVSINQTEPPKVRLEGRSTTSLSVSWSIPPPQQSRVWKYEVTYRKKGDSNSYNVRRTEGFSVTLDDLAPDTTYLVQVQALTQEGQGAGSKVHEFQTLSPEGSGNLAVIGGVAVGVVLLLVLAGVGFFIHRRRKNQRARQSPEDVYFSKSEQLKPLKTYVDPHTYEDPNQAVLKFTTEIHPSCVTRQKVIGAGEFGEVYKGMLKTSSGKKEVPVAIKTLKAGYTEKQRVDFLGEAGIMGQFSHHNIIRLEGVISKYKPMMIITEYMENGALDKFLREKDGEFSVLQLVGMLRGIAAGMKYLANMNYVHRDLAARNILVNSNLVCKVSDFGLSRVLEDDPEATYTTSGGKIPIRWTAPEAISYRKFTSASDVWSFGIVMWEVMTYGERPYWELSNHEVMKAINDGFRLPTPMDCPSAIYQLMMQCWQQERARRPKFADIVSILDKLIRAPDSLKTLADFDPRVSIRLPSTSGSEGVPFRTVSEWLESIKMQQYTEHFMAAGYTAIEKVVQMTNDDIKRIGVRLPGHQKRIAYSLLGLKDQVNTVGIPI
PAK1, sequence (Q13153 whole entry): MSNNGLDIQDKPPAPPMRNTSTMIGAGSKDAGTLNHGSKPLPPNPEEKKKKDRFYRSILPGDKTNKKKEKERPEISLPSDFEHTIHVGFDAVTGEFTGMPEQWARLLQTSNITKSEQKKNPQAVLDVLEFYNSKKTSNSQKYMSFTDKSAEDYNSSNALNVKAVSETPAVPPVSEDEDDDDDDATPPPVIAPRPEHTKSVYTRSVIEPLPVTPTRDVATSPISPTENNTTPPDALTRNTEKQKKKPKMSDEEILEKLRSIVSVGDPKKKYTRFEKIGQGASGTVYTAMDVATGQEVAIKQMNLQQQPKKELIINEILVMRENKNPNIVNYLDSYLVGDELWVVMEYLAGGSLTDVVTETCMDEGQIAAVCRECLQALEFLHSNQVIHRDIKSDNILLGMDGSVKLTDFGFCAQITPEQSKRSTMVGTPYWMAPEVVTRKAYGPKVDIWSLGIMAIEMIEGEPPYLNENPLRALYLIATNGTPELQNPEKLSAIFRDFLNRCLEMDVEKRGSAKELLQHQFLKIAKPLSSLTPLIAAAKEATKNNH
SRC, sequence (P12931 whole entry): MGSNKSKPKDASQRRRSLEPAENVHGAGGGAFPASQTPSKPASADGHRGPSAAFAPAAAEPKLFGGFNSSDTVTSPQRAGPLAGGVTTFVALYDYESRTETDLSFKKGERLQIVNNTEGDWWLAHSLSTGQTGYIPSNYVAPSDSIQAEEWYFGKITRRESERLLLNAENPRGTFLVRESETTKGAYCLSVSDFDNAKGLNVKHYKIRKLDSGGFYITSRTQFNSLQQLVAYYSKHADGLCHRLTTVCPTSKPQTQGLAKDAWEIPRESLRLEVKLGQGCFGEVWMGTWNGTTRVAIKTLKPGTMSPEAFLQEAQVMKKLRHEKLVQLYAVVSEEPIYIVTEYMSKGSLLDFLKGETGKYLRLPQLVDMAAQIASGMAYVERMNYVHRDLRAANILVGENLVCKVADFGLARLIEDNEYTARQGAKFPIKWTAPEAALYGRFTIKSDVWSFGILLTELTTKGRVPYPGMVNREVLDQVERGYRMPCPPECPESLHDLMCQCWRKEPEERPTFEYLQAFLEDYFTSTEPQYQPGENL
CSNK1G2 (CK1 gamma 2), sequence (P78368 whole entry): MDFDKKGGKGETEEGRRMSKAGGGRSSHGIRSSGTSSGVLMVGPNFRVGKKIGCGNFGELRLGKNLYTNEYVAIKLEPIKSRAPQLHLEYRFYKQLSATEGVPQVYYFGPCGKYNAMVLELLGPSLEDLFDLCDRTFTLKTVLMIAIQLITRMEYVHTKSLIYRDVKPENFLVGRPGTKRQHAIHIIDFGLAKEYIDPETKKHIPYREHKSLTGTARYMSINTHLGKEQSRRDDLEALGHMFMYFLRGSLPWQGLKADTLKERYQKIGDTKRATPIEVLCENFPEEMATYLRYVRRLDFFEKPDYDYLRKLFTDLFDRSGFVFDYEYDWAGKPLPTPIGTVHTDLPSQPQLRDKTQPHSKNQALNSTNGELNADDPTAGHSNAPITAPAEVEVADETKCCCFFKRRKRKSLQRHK
INSR, sequence (P06213 whole entry): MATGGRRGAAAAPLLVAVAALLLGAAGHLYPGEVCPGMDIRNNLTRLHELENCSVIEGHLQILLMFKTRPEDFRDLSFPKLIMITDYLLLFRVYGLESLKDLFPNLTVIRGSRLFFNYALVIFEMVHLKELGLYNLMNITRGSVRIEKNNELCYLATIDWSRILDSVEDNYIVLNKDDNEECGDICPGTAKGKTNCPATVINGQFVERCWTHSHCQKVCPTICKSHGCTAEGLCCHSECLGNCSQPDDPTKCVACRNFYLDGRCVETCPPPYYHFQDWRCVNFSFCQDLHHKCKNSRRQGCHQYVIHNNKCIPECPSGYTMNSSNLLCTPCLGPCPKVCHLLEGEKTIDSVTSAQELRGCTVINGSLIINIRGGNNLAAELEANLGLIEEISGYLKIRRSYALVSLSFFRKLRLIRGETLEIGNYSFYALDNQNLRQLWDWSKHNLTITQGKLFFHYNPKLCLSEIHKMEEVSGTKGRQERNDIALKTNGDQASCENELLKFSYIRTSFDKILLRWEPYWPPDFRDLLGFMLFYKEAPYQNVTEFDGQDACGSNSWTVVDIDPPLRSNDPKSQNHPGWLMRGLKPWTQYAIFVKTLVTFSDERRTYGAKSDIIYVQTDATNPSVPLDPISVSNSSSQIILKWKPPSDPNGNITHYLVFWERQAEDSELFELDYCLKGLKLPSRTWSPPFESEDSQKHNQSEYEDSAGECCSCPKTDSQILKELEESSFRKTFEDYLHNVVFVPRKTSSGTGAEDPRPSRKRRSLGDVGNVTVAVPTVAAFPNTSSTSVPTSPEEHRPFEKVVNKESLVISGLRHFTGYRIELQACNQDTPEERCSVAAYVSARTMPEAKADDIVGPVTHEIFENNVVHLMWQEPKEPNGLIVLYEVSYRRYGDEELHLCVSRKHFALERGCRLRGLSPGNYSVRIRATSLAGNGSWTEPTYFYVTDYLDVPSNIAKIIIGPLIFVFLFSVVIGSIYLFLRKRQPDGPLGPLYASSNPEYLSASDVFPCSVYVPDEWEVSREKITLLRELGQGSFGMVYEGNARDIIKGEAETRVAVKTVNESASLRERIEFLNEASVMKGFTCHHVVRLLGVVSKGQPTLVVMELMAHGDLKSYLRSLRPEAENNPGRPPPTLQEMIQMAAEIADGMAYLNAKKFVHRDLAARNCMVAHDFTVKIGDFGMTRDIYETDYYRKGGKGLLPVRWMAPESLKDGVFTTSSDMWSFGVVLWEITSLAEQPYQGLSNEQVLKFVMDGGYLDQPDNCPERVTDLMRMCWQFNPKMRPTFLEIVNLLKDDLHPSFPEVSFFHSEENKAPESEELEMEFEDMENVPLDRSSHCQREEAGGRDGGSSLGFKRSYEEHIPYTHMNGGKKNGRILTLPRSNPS

## O=C(CSc1nc2nccnc2c(=O)n1CCc1ccccc1)Nc1nccs1 [compound 1, PITCOIN1]
[1]
  inhibition at 1 µM: 0.852%
  inhibition at 3 µM: -8.02%
  inhibition at 10 µM: -7.27%
[2]
  inhibition at 1 µM: 6.54%
  inhibition at 3 µM: 8.4%
  inhibition at 10 µM: 9.38%
[3]
  inhibition at 1 µM: 8.8%
  inhibition at 3 µM: 5.6%
  inhibition at 10 µM: -0.465%
[4]
  inhibition at 1 µM: 8.19%
  inhibition at 3 µM: 4.57%
  inhibition at 10 µM: -0.425%
[5]
  inhibition at 1 µM: 3.42%
  inhibition at 3 µM: 3.95%
  inhibition at 10 µM: 0.721%
[6]
  inhibition at 1 µM: 0.334%
  inhibition at 3 µM: 6.89%
  inhibition at 10 µM: 8.12%
[7]
  inhibition at 1 µM: 9.02%
  inhibition at 3 µM: 8.06%
  inhibition at 10 µM: 7.22%
[8]
  inhibition at 1 µM: -5.17%
  inhibition at 3 µM: -2.58%
  inhibition at 10 µM: -1.88%
[9]
  inhibition at 1 µM: 7.72%
  inhibition at 3 µM: -7.09%
  inhibition at 10 µM: -15.3%
[10]
  inhibition at 1 µM: 4.94%
  inhibition at 3 µM: 3.7%
  inhibition at 10 µM: 2.3%
[11]
  inhibition at 1 µM: 2.09%
  inhibition at 3 µM: 1.39%
  inhibition at 10 µM: -0.671%
[12]
  inhibition at 1 µM: 8.59%
  inhibition at 3 µM: 3.7%
  inhibition at 10 µM: 9.6%
[13]
  inhibition at 1 µM: 7.5%
  inhibition at 3 µM: 5.07%
  inhibition at 10 µM: 3.39%
[14]
  inhibition at 1 µM: 3.79%
  inhibition at 3 µM: 4.7%
  inhibition at 10 µM: 4.31%
[15]
  inhibition at 1 µM: 10.7%
  inhibition at 3 µM: 2.87%
  inhibition at 10 µM: 6.89%
[16]
  inhibition at 1 µM: 8.77%
  inhibition at 3 µM: 11%
  inhibition at 10 µM: 10.9%

## CS(=O)(=O)Nc1cccc(-c2csc(NC(=O)CSc3nc4nccnc4c(=O)n3CCc3ccccc3)n2)c1 [compound 3, PITCOIN3]
[1]
  inhibition at 1 µM: -4.04%
  inhibition at 3 µM: -2.51%
  inhibition at 10 µM: -3.7%
[2]
  inhibition at 1 µM: 13.8%
  inhibition at 3 µM: 8.03%
  inhibition at 10 µM: 8.38%
[3]
  inhibition at 1 µM: -8.14%
  inhibition at 3 µM: 9.01%
  inhibition at 10 µM: 5.45%
[4]
  inhibition at 1 µM: 0.654%
  inhibition at 3 µM: 10.7%
  inhibition at 10 µM: 9.78%
[5]
  inhibition at 1 µM: 3.69%
  inhibition at 3 µM: 4.01%
  inhibition at 10 µM: 4.66%
[6]
  inhibition at 1 µM: 7.85%
  inhibition at 3 µM: 15.6%
  inhibition at 10 µM: 13.7%
[7]
  inhibition at 1 µM: 10.5%
  inhibition at 3 µM: 8.66%
  inhibition at 10 µM: 4.91%
[8]
  inhibition at 1 µM: 21.4%
  inhibition at 3 µM: -0.318%
  inhibition at 10 µM: 19.2%
[9]
  inhibition at 1 µM: -8.51%
  inhibition at 3 µM: 0.972%
  inhibition at 10 µM: 8.3%
[10]
  inhibition at 1 µM: 9.45%
  inhibition at 3 µM: 8.02%
  inhibition at 10 µM: 6.38%
[11]
  inhibition at 1 µM: -2.95%
  inhibition at 3 µM: 6.63%
  inhibition at 10 µM: 0.555%
[12]
  inhibition at 1 µM: 9.83%
  inhibition at 3 µM: 12.2%
  inhibition at 10 µM: 7.36%
[13]
  inhibition at 1 µM: 8.6%
  inhibition at 3 µM: 10.7%
  inhibition at 10 µM: 5.64%
[14]
  inhibition at 1 µM: 9.48%
  inhibition at 3 µM: 7.4%
  inhibition at 10 µM: 6.13%
[15]
  inhibition at 1 µM: 15.2%
  inhibition at 3 µM: 4.2%
  inhibition at 10 µM: 9.92%
[16]
  inhibition at 1 µM: 9.36%
  inhibition at 3 µM: 10%
  inhibition at 10 µM: 7.66%
